Results reported in patent US20220267478A1, “PEPTIDE-LOADED CARRIER SYSTEMS AND USES THEREOF” (Academia Sinica, priority 2019, published 2022).
Converted amounts (≈) assume the structure as drawn. Ends that are not written are not given here.

Tests used:
[1] = Aqueous solubility of peptides; details: for Solubility of unmodified peptide epitope: Table 1; for solubility / water solubility (in words): water
[2] = from Vasievich et al.; cited from earlier work
CD8 T cells = experiment: Trp2-specific CD8 T cell response in splenocytes of vaccinated mice (intracellular IFN-γ staining, flow cytometry); format: in vivo, C57BL/6 mice; details: peptide in nanoparticles with cdGMP; FIG. 10
Procedure: The immunogenicity of modified Trp2 peptides was tested by encapsulating them in the aqueous core of hollow thin-shell nanoparticles together with a fixed amount of stimulator of interferon genes (STING) agonist cyclic di-GMP (cdGMP) and injecting them into mice.
The modified Trp2 peptides were as follows: (i) D4-Trp2-D5, (ii) Trp2-D5, (iii) D5-Trp2, (iv) D2G3-Trp2-G3D2, (v) Trp2-G3D3, and (vi) D3G3-Trp2. As Trp2 itself cannot be incorporated into the aqueous core due to its hydrophobicity, a longer Trp2 peptide, namely, Trp2168-195 was encapsulated as a positive control.
Nanoparticles each containing an equivalent dose of one of the Trp2 peptides and cdGMP were prepared as described in Example 1 above and administered to C57BL/6 mice on day 0 and day 21 by subcutaneous injection at the base of the tail. On day 28, splenocytes of the vaccinated mice were isolated and examined for Trp2-specific CD8 T cell immune responses. Briefly, splenocytes from each mouse were challenged with Trp2 peptide and expression of IFN-γ in CD8 T cells was measured by intracellular cytokine staining and flow cytometry.

JAWSII dendritic cells = experiment: Dendritic cell surface marker expression after nanoparticle incubation and LPS stimulation; format: cell-based; details: FIG. 24
Procedure: FIG. 24 includes bar graphs showing the percentage of JAWSII dendritic cells expressing CD80 (upper left panel), CD86 (upper right panel), MHC I (bottom left panel) and MHC II (bottom right panel) assessed by flow cytometric analysis after the cells were co-cultured with the indicated aspirin/peptide formulations.
Dendritic cells were incubated with nanoparticles co-encapsulating adaptor modified OTII peptide and aspirin or adaptor-modified peptides only for 6 h, and then were stimulated with low dose of lipopolysaccharide (“LPS”). Dendritic cell phenotypes were observed 24 h later. See the experimental scheme in FIG. 23.

CC[C@H](C)[C@H](NC(=O)[C@@H](NC(=O)[C@@H](N)CO)[C@@H](C)CC)C(=O)N[C@@H](CC(N)=O)C(=O)N[C@@H](Cc1ccccc1)C(=O)N[C@@H](CCC(=O)O)C(=O)N[C@@H](CCCCN)C(=O)N[C@@H](CC(C)C)C(=O)O [OVA257-264, SIINFEKL]
Solubility of unmodified peptide epitope [1]: hydrophilic
solubility [1]: 2 mM (≈ 1930 µg/mL)

CC(C)C[C@H](NC(=O)[C@H](Cc1c[nH]c2ccccc12)NC(=O)[C@@H](NC(=O)[C@H](Cc1ccccc1)NC(=O)[C@H](Cc1ccccc1)NC(=O)[C@H](CC(=O)O)NC(=O)[C@H](Cc1ccc(O)cc1)NC(=O)[C@@H](NC(=O)[C@@H](N)CO)C(C)C)C(C)C)C(=O)O [Trp2, SVYDFFVWL]
maximum solubility in water [2]: 0.06 mM

AQLANDVVL [Resp1, AQLANDVVL]
Solubility of unmodified peptide epitope [1]: hydrophobic
water solubility (in words) [1]: poorly soluble

ASMTNMELM [Adpgk, ASMTNMELM]
Solubility of unmodified peptide epitope [1]: hydrophobic
water solubility (in words) [1]: poorly soluble

DDDGGGSIINFEKL [D3G3-OVA]
solubility [1]: 50 mM

DDDGGGSVYDFFVWL [D3G3-Trp2, DDDGGGSVYDFFVWL]
solubility fold higher than the Trp2 peptide ([1]; H2O): over 500 fold
solubility [1]: > 30 mM

FQDAYNAAGGHNAVF [Mycobacterium tuberculosis p25, FQDAYNAAGGHNAVF]
Solubility of unmodified peptide epitope [1]: hydrophobic

ISQAVHAAHAEINEAGR [OT-II, ISQAVHAAHAEINEAGR]
Solubility of unmodified peptide epitope [1]: hydrophilic

KVPRNQDWL [gp100, KVPRNQDWL]
Solubility of unmodified peptide epitope [1]: hydrophilic

QVYSLIRPNENPAHK [influenza virus nucleoprotein NP311, QVYSLIRPNENPAHK]
Solubility of unmodified peptide epitope [1]: hydrophilic

SIIVFNLL [Dpagt1, SIIVFNLL]
Solubility of unmodified peptide epitope [1]: hydrophobic
water solubility (in words) [1]: poorly soluble

TAYRYHLL [Trp1m, TAYRYHLL]
Solubility of unmodified peptide epitope [1]: hydrophilic

Trp2168-195: longer Trp2 peptide containing sequences flanking the target epitope 180-188; positive control
CD8+ T cell response, fold weaker compared to D3G3-Trp2 (CD8 T cells): ~20 fold

lipopolysaccharide [LPS]
expression of CD80, CD86, MHC I, and MHC II compared to vehicle control (JAWSII dendritic cells): increased expression
